Experimental data: patent US9539231B2, “Method for treating triple-negative breast cancer using AMPI-109” (The Regents of the University of Colorado, a body corporate, priority 2014, dated 2017)
pIC50: −log10 of the molar value.

Tests used:
BT-20 [1] = experiment: MTS growth assay, 3 days treatment; type: cell-based, human; details: BT-20, TN (Unclass.), 100 nM
Protocol: (§1) Breast cancer is a very heterogeneous disease consisting of multiple molecular subtypes. In order to examine the antitumorigenic properties of AMPI-109 in human breast cancer cells of various subtypes, a cohort of breast cancer cell lines were treated with AMPI-109 at its IC50 (the dose where 50% of the cells show the desired effects), equimolar 1,25D or ethanol control and cellular growth was quantified. In particular, the cell lines were treated at the approximate IC50 (100 nM) of AMPI-109, 1,25D (100 nM) or ethanol control for 3 days. MTS assays were then performed. The experiment was repeated three times with 6 replicates per experiment.
(§2) The percentage in Table 1 represents growth compared to control treatment. The p values represent significance of difference between 1,25D inhibition and AMPI-109 inhibition of growth. It can be concluded from the data that AMPI-109 inhibits the growth of multiple TN breast cancer subtypes and this inhibition appeared to be almost entirely specific for TN breast cancer cell lines.

BT-474 = experiment: MTS growth assay, 3 days treatment; type: cell-based, human; details: BT-474, Luminal B, 100 nM
Protocol: as §1, §2

BT-549 = experiment: MTS growth assay, 3 days treatment; type: cell-based, human; details: BT-549, TN (M), 100 nM
Protocol: as §1, §2

HCC70 = experiment: MTS growth assay, 3 days treatment; type: cell-based, human; details: HCC70, TN (BL2), 100 nM
Protocol: as §1, §2

MCF10A [2] = experiment: MTS growth assay, 3 days treatment; type: cell-based, human; details: Nonmalignant, 100 nM
Protocol: as §1, §2

MCF7 [3] = experiment: MTS growth assay, 3 days treatment; type: cell-based, human; details: MCF7, Luminal A, 100 nM
Protocol: as §1, §2

MDA-231 [4] = experiment: MTS growth assay, 3 days treatment; type: cell-based, human; details: MDA-231, TN (MSL), 100 nM
Protocol: as §1, §2

MDA-453 = experiment: MTS growth assay, 3 days treatment; type: cell-based, human; details: MDA-453, HER2, 100 nM
Protocol: as §1, §2

MDA-468 = experiment: MTS growth assay, 3 days treatment; type: cell-based, human; details: MDA-468, TN (BL1), 100 nM
Protocol: as §1, §2

SKBR3 = experiment: MTS growth assay, 3 days treatment; type: cell-based, human; details: SKBR3, HER2, 100 nM
Protocol: as §1, §2

SUM149 = experiment: MTS growth assay, 3 days treatment; type: cell-based, human; details: SUM149, TN (BL2), 100 nM
Protocol: as §1, §2

T47D = experiment: MTS growth assay, 3 days treatment; type: cell-based, human; details: Luminal A, 100 nM
Protocol: as §1, §2

[5] = test system: human breast cancer cells; experiment: IC50 of AMPI-109 for cellular growth (MTS); type: cell-based; details: breast cancer cell lines, read-out: approximate IC50
Protocol: as §1

[6] = test system: patient-derived triple negative breast cancer tumor xenograft; experiment: Patient-derived TNBC tumor xenograft growth inhibition; type: in vivo, NOD-SCID mice; details: 1 ug/kg i.p. every other day for three weeks, vs vehicle
Description: The inventors further examined the ability of AMPI-109 to inhibit the growth of a patient-derived triple negative breast cancer tumor xenograft. A tumor from a person diagnosed with stage 4 triple negative breast cancer was propagated by serial passage through NOD-SCID mice. The tumor was dissected into equal sizes and implanted into the left and right mammary fat pads of 12 NOD-SCID mice. Once the tumors reached 100 mm^3 in size the mice were randomized into vehicle- and AMPI-109-treated arms. A total of 19 tumors grew out (9 for vehicle, and 10 for AMPI-109 treated). Vehicle control or AMPI-109 (1 ug/kg body weight) was administered by i.p. injection every other day for three weeks. Upon completion of the study, the tumors were excised and volume and mass were determined. […] The results were shown in FIG. 1, where * indicates a p value of 0.018, which was determined by T-test.

BT-20 [7] = experiment: Cell viability by crystal violet staining, 7 days; type: cell-based, human; details: 100 nM
Protocol: (§3) In order to determine the effects of AMPI-109 on cell viability as one possible explanation of the reduction in tumor size, the inventors plated various breast cancer cell lines in 6-well dishes and treated with either ethanol control (CU), vitamin D (1,25D) or AMPI-109. 1,25D and AMPI-109 were administered at 100 nM. The plates were incubated for 7 days and cell viability was assessed by crystal violet staining.

MCF-10A [8] = experiment: Cell viability by crystal violet staining, 7 days; type: cell-based, human; details: MCF-10A non-malignant, 100 nM
Protocol: as §3

MCF7 [9] = experiment: Cell viability by crystal violet staining, 7 days; type: cell-based, human; details: MCF7 luminal A, 100 nM
Protocol: as §3

MDA-231 [10] = experiment: Cell viability by crystal violet staining, 7 days; type: cell-based, human; details: 100 nM
Protocol: as §3

BT-20 [11] = experiment: Apoptosis ELISA assay, 24 hours; type: cell-based, human; details: 100 nM
Protocol: (§4) The inventors also examined the ability of AMPI-109 to induce apoptosis in TN breast cancer cells by performing ELISA assays. Various cell lines (MCF10A, MCF-7, BT-20 and MDA-231) were treated with ethanol control (C), paclitaxel (100 nM, (T)), 1,25D (100 nM), (D)), or AMPI-109 (100 nM), (A)) for 24 hours. ELISA assays were then performed. The p values in the figure were determined by T-test. […] Therefore, it can be concluded that AMPI-109 appears to specifically induce apoptosis in TN breast cancer cells.

MDA-231 [12] = experiment: Apoptosis ELISA assay, 24 hours; type: cell-based, human; details: 100 nM
Protocol: as §4

BT-20 [13] = experiment: PARP cleavage by western blot, 24 hours; type: cell-based, human; details: 100 nM
Protocol: (§5) Cleavage of poly (ADP)-ribose polymerase (PARP), a hallmark of apoptosis, was used to further investigate the ability of AMPI-109 to induce apoptosis of TN breast cancer cells. FIG. 2C, wherein PARP cleavage was determined by western blot, summarizes the results of cleaved PARP after treating MCF10A, MCF-7, BT-20 and MDA-231 with ethanol control (C), paclitaxel (100 nM, (T)), 1,25D (100 nM), (D)), or AMPI-109 (100 nM), (A)) for 24 hours. […] Accordingly, the results as described in FIG. 2A, FIG. 2B, and FIG. 2C indicate the capability of AMPI-109 as an agent to induce apoptosis of TN breast cancer cells.

MCF-7 [14] = experiment: PARP cleavage by western blot, 24 hours; type: cell-based, human; details: 100 nM
Protocol: as §5

MCF10A [15] = experiment: PARP cleavage by western blot, 24 hours; type: cell-based, human; details: 100 nM
Protocol: as §5

MDA-231 [16] = experiment: PARP cleavage by western blot, 24 hours; type: cell-based, human; details: 100 nM
Protocol: as §5

BT-20 cells [17] = experiment: Growth assay in BT-20 cells with VDR shRNA knock down, 72 hours; type: cell-based, human; details: p<0.001
Description: The inventors used shRNAs directed against VDR in BT-20 cells and examined the response after treatment with AMPI-109. […] The non-silencing control is designated as pLKO.

BT-20 cells [18] = experiment: Block of AMPI-109-mediated growth inhibition by RXR antagonist; type: cell-based, human; details: doses which blocked VDR-mediated gene expression
Description: VDR activates gene expression as a heterodimer with the retinoid X receptor (RXR). The inventors thus also tested whether pharmacologic inhibition of the VDR axis with HX531, an RXR antagonist, would block AMPI-109-mediated growth inhibition of BT-20 cells.

[19] = test system: VDR-mediated gene expression; experiment: VDR-mediated gene expression; type: cell-based
MCF-10A [20] = experiment: Apoptosis ELISA assay, 24 hours; type: cell-based, human; details: 100 nM
Protocol: as §4

MCF-7 [21] = experiment: Apoptosis ELISA assay, 24 hours; type: cell-based, human; details: 100 nM
Protocol: as §4

SMILES | % Control (growth compared to control treatment) (BT-20 [1]) [%] | % Control (growth compared to control treatment) (BT-474) [%] | % Control (growth compared to control treatment) (BT-549) [%] | % Control (growth compared to control treatment) (HCC70) [%] | % Control (growth compared to control treatment) (MCF10A [2]) [%] | % Control (growth compared to control treatment) (MCF7 [3]) [%] | % Control (growth compared to control treatment) (MDA-231 [4]) [%] | % Control (growth compared to control treatment) (MDA-453) [%] | % Control (growth compared to control treatment) (MDA-468) [%] | % Control (growth compared to control treatment) (SKBR3) [%] | % Control (growth compared to control treatment) (SUM149) [%] | % Control (growth compared to control treatment) (T47D) [%] | induction of apoptosis (ELISA) (BT-20 [11]) | induction of apoptosis (ELISA) (MDA-231 [12]) | also measured
C=C1/C(=C\C=C2/CCC[C@]3(C)[C@@H]([C@H](C)CCCC(C)(C)O)CC[C@@H]23)C[C@@H](O)C[C@@H]1O [1,25D, reference compound] | 82 | 87 | 94 | 83 | 102 | 95 | 96 | 94 | 86 | 100 | 92 | 98 | – | – | –
C=C1/C(=C\C=C2/CCC[C@]3(C)[C@@H]([C@H](C)CCCC(C)(C)O)CC[C@@H]23)C[C@@H](OC(=O)CBr)C[C@@H]1O [AMPI-109, 1α,25-Dihydroxyvitamin D3-3β-bromoacetate] | 29 | 66 | 69 | 49 | 99 | 93 | 44 | 86 | 39 | 99 | 39 | 94 | strong induction of apoptosis | strong induction of apoptosis | pIC50 [5]: ~7.00; tumor mass [6]: significant reduction; tumor volume [6]: significant reduction; reduction of the size of the tumors ([6]; p 0.018): approximately 30%; cell viability (crystal violet staining) (BT-20 [7]): significant reduction in cell viability; cell viability (crystal violet staining) (MCF-10A [8]): no effect on cell viability; cell viability (crystal violet staining) (MCF7 [9]): no effect on cell viability; cell viability (crystal violet staining) (MDA-231 [10]): significant reduction in cell viability; PARP cleavage (western blot) (BT-20 [13]): promoted PARP cleavage; PARP cleavage (western blot) (MCF-7 [14]): only in BT-20 and MDA-231 cells; PARP cleavage (western blot) (MCF10A [15]): only in BT-20 and MDA-231 cells; PARP cleavage (western blot) (MDA-231 [16]): promoted PARP cleavage; growth inhibition (BT-20 cells [17]; BT-20 cells with VDR knocked down (VDR3, VDR8 shRNAs)): equally effective at inhibiting the growth; growth inhibition (BT-20 cells [17]; BT-20 control cells (pLKO non-silencing)): equally effective at inhibiting the growth
CN1c2ccc([N+](=O)[O-])cc2N=C(c2ccc(C(=O)O)cc2)c2cc3c(cc21)C(C)(C)CCC3(C)C [HX531] | – | – | – | – | – | – | – | – | – | – | – | – | – | – | effect on AMPI-109-mediated growth inhibition (BT-20 cells [18]): did not inhibit the antiproliferative effects of AMPI-109; effect on VDR-mediated gene expression [19]: blocked VDR-mediated gene expression
CC(=O)O[C@H]1C(=O)[C@@]2(C)[C@H]([C@H](OC(=O)c3ccccc3)[C@]3(O)C[C@H](OC(=O)[C@H](O)[C@@H](NC(=O)c4ccccc4)c4ccccc4)C(C)=C1C3(C)C)[C@]1(OC(C)=O)CO[C@@H]1C[C@@H]2O [paclitaxel, reference compound] | – | – | – | – | – | – | – | – | – | – | – | – | induced apoptosis in all cells tested | induced apoptosis in all cells tested | induction of apoptosis (ELISA) (MCF-10A [20]): induced apoptosis in all cells tested; induction of apoptosis (ELISA) (MCF-7 [21]): induced apoptosis in all cells tested
